Source: patent US20240246954A1, “COMPOSITIONS AND METHODS FOR INHIBITING KRAS” (TheRas, Inc., priority 2021, published 2024)
Where two headings read alike, the source gives them in different places.

What was measured:
[1] = target: T1, Avi-KRAS G12D (1-169) GppNHp/RAF1 RBD-3×FLAG (52-151) (Homo sapiens, UniProt P01116, G12D); assay: HTRF Raf1-KRAS G12D-GppNHp disruption assay; format: biochemical; conditions: 1 h incubation
T1 construct: Avi-KRAS G12D (1-169) GppNHp
In short: (§1)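 Compounds titrated from 100 μM in a 10-point series, incubated with protein mix 1 h at room temperature, then HTRF reagents a further 1 h. Time-resolved fluorescence read (excitation 320 nm, emission 615 nm); activity expressed as percentage of DMSO control.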

[2] = target: T2, Avi-KRAS G12D/Q25A (1-169) GppNHp/3×FLAG-PI3KCA (157-299) (Homo sapiens, UniProt P01116, G12D/Q25A); assay: HTRF PI3KCA-KRAS G12D/Q25A-GppNHp disruption assay; format: biochemical; conditions: 1 h incubation
T2 construct: Avi-KRAS G12D/Q25A (1-169) GppNHp
In short: as §1

[3] = tested on: pERK in GP2d cells (KRAS G12D); assay: Cell-based pERK HTRF assay; conditions: 60 min incubation
Method: Biological Example 3. Cell-Based pERK HTRF Assay
pERK assay (Perkin Elmer) was used to determine the effectiveness of compounds in disrupting KRAS G12D protein/effector signaling in cells.
On Day 1, cells (GP2d) were seeded into 96-well plates at 3×10^4 cells/well in 80 μl complete growth media (DMEM, 10% FBS).
On Day 2, cells were treated with compounds at 0.25% DMSO. The source plate was created with compounds diluted in media at 5-fold the final assay concentration. The compounds were run in a 9-point concentration curve starting at 1 μM, with a half-log dilution between concentrations. 20 μL was transferred onto the cell plates (final volume in wells was 100 μL). Plates were harvested after 60 min incubation by aspirating media and adding kit-supplied 1× supplemented lysis buffer to all wells (50 μl per well). Plates were then placed on a plate shaker and incubated at 850 rpm for an additional 30 min.
Antibody mixture solution is prepared by diluting aliquoted d2 and Eu Cryptate antibodies 1:20 in kit supplied detection buffer, mix the diluted antibodies solutions (1:1 v:v). Four μL of this solution is then added to a 384-well detection plate (Perkin Elmer; 6008230).
Samples were homogenized by pipetting up and down and then transferred (16 μL of cell lysates) from the 96-well cell culture plate to two wells of the HTRF 384-well detection plate containing the antibody solution. Plates were centrifuged (524 g for 1 min) and allowed to incubate between 4 and 24 h at room temperature. Maximum signal is reached after 4 h incubation time and remains stable over a period of 24 hours. Therefore, readings can be made between 4 and 24 h of incubation. Plates were centrifuged again (524 g for 1 min), then analyzed on the EnVision plate reader using the following settings: Excitation 320 nm, Bandwidth 75 nm; Emission 615 nm, Bandwidth 85 nm; Gain 100%; Flashes 100; Lag 60 μs.

T2 sequence (P01116 1-169 isoform P01116-2 G12D/Q25A limits assumed): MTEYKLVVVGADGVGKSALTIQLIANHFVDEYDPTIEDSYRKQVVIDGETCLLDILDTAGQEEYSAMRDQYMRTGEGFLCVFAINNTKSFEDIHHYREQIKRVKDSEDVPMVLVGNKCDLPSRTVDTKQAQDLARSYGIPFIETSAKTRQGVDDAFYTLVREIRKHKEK
T1 sequence (P01116 1-169 isoform P01116-2 G12D limits assumed): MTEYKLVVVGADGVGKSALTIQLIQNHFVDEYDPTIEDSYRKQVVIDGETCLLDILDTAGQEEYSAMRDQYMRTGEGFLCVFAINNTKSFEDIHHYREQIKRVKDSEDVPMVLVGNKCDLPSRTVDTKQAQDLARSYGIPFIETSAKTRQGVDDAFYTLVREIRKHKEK

SMILES | IC50 [1] [nM] | IC50 [2] [nM] | IC50 ([3]; GP2d, 1 h) [nM] | IC50 ([3]; read-out: pERK-Gp2D-1hr) [nM]
CN1CCC[C@H]1COc1nc(NC2CNC2)c2cc(C(F)(F)F)c(-c3ccc(F)c4sc(N)nc34)c(F)c2n1 [Compound 129] | 100 to 1000 | 1000 to 10000 | > 1000 | 
Nc1nc2c(-c3c(C(F)(F)F)cc4c(N5CC[C@H]6CNC[C@H]65)nc(OC[C@@]56CCCN5C[C@H](F)C6)nc4c3F)ccc(F)c2s1 [Compound 352] | 1000 to 10000 | 1000 to 10000 | 100 to 1000 | 
Nc1nc2c(-c3c(C(F)(F)F)cc4c(N5CC6CCC(C5)N6CC5CC5)nc(OC[C@@]56CCCN5C[C@H](F)C6)nc4c3F)ccc(F)c2s1 [Compound 324] | 1000 to 10000 | 1000 to 10000 | 100 to 1000 | 
Nc1nc2c(-c3cc4nc(OC[C@@]56CCCN5C[C@H](F)C6)nc(N5CC6CCC(C5)N6)c4cc3C(F)(F)F)c(F)cc(F)c2s1 [Compound 319] | 100 to 1000 | 100 to 1000 | ≤ 100 | 
Nc1nc2c(-c3c(C(F)(F)F)cc4c(N5CCC6(CCNC6)C5)nc(OCC56CCCN5CCC6)nc4c3F)ccc(F)c2s1 (stereo not drawn) [Compound 327] | 100 to 1000 | 1000 to 10000 | > 1000 | 
N#Cc1c(-c2ccc(F)c3sc(N)c(C#N)c23)c(Cl)cc2c(N3CC4CCC(C3)N4)nc(OC[C@@]34CCCN3C[C@H](F)C4)nc12 [Compound 371] | 100 to 1000 | 100 to 1000 | ≤ 100 | 
CN(c1nc(N2CC(N3CC4(CC4)C3)C2)nc2c(F)c(-c3ccc(F)c4sc(N)c(C#N)c34)c(C(F)(F)F)cc12)[C@@H]1CCNC1 [Compound 365] | 100 to 1000 | 100 to 1000 | 100 to 1000 | 
N#Cc1c(N)sc2c(F)ccc(-c3c(C(F)(F)F)cc4c(N5CC6CCC(C5)N6)nc(OC[C@@]56CCCN5C[C@H](F)C6)nc4c3F)c12 (single isomer, unassigned) [Compound 367] | 1000 to 10000 | 1000 to 10000 |  | 100 to 1000
N#Cc1csc2c(F)ccc(-c3cc4nc(OC[C@@]56CCCN5C[C@H](F)C6)nc(N5CC6CCC(C5)N6)c4cc3C(F)(F)F)c12 [Compound 318] | 1000 to 10000 | 10000 to 30000 | 100 to 1000 | 
Nc1nc2c(-c3c(C(F)(F)F)cc4c(N[C@@H]5CCC6(CNC6)C5)nc(OCC56CCCN5CCC6)nc4c3F)ccc(F)c2s1 [Compound 334] | 1000 to 10000 | 1000 to 10000 | > 1000 | 
CN(c1nc(OCC23CCCN2CCC3)nc2c(F)c(-c3ccc(F)c4sc(N)nc34)c(C(F)(F)F)cc12)[C@@H]1CCNC1 (single isomer, unassigned) [Compound 236] | 100 to 1000 | 100 to 1000 | > 1000 | 
CN(c1nc(OC[C@@]23CCCN2C[C@H](F)C3)nc2cc(-c3ccc(F)c4sc(N)c(C#N)c34)c(C(F)(F)F)cc12)[C@H]1CNC[C@H]1F [Compound 347] | 100 to 1000 | 100 to 1000 | ≤ 100 | 
Nc1c(F)c(F)c(F)c(-c2c(C(F)(F)F)cc3c(N4CC5CCC(C4)N5)nc(OCC45CCCN4CCC5)nc3c2F)c1Cl [Compound 346] | 10000 to 30000 | 10000 to 30000 | > 1000 | 
N#Cc1cc2c(N3C[C@H]4CC[C@@H](C3)N4)nc(OC[C@@]34CCCN3C[C@H](F)C4)nc2c(F)c1-c1ccc(F)c2sc(N)c(C#N)c12 [Compound 359, 7-(2-amino-3-cyano-7-fluorobenzo[b]thiophen-4-yl)-4-((1R,5S)-3,8-diazabicyclo[3.2.1]octan-3-yl)-8-fluoro-2-(((2R,7aS)-2-fluorotetrahydro-1H-pyrrolizin-7a(5H)-yl)methoxy)quinazoline-6-carbonitrile] | 100 to 1000 | 100 to 1000 | ≤ 100 | 
Nc1nc2c(-c3c(C(F)F)cc4c(N5C[C@H]6CC[C@@H](C5)N6)nc(OC[C@@]56CCCN5C[C@H](F)C6)nc4c3F)ccc(F)c2s1 [Compound 370, 4-(4-((1R,5S)-3,8-diazabicyclo[3.2.1]octan-3-yl)-6-(difluoromethyl)-8-fluoro-2-(((2R,7aS)-2-fluorotetrahydro-1H-pyrrolizin-7a(5H)-yl)methoxy)quinazolin-7-yl)-7-fluorobenzo[d]thiazol-2-amine] | 100 to 1000 | 100 to 1000 | ≤ 100 | 
CN(c1nc(OCC23CCCN2CCC3)nc2c(F)c(-c3ccc(F)c4sc(N)nc34)c(C(F)(F)F)cc12)[C@H]1CC[C@H](N)CC1 [Compound 304] | 1000 to 10000 | 1000 to 10000 | > 1000 | 

SMILES | IC50 [1] [nM] | IC50 [2] [nM] | IC50 ([3]; GP2d, 1 h) [nM] | IC50 ([3]; read-out: pERK-Gp2D-1hr) [nM]
Nc1nc2c(-c3c(C(F)(F)F)cc4c(N5C[C@H]6CC[C@@H](C5)N6)nc(OC[C@@]56CCCN5C[C@H](F)C6)nc4c3Cl)ccc(F)c2s1 [Compound 256, 4-(4-((1R,5S)-3,8-diazabicyclo[3.2.1]octan-3-yl)-8-chloro-2-(((2R,7aS)-2-fluorotetrahydro-1H-pyrrolizin-7a(5H)-yl)methoxy)-6-(trifluoromethyl)quinazolin-7-yl)-7-fluorobenzo[d]thiazol-2-amine] | 100 to 1000 | 100 to 1000 | ≤ 100 | 
Nc1nc2c(-c3c(C(F)(F)F)cc4c(NC5CNC5)nc(OCC56CCCN5CCC6)nc4c3F)ccc(F)c2o1 [Compound 199] | 100 to 1000 | 1000 to 10000 | > 1000 | 
CN(c1nc(OC[C@@]23CCCN2C[C@H](F)C3)nc2c(F)c(-c3ccc(F)c4sc(N)c(C#N)c34)c(Cl)cc12)[C@@H]1CCNC1 [Compound 379] | 100 to 1000 | 100 to 1000 | ≤ 100 | 
Nc1nc2c(-c3c(C(F)(F)F)cc4c(N[C@H]5CCC[C@H](N)C5)nc(OCC56CCCN5CCC6)nc4c3F)ccc(F)c2s1 [Compound 328] | 1000 to 10000 | 1000 to 10000 | > 1000 | 
N#Cc1c(N)cccc1-c1c(C(F)(F)F)cc2c(N3CC4CCC(C3)N4)nc(OCC34CCCN3CCC4)nc2c1F [Compound 342] | 10000 to 30000 | 10000 to 30000 | > 1000 | 
Nc1nc2c(-c3c(C(F)(F)F)cc4c(N5CC[C@@H]6NCC[C@@H]65)nc(OCC56CCCN5CCC6)nc4c3F)ccc(F)c2s1 [Compound 333] | 1000 to 10000 | 1000 to 10000 | > 1000 | 
Nc1nc2c(-c3cc4nc(OC[C@@]56CCCN5C[C@H](F)C6)nc(N5CC6CCC(C5)N6)c4cc3C(F)(F)F)ccc(F)c2s1 [Compound 313] | 100 to 1000 | 1000 to 10000 | ≤ 100 | 
N#Cc1cc2c(N3CC4CCC(C3)N4)nc(OC[C@@]34CCCN3C[C@H](F)C4)nc2c(F)c1-c1ccc(F)c2sc(N)nc12 [Compound 258] | 100 to 1000 | 100 to 1000 | ≤ 100 | 
Fc1c(-c2cc(C(F)F)cc3ccccc23)c(C(F)(F)F)cc2c(N3CC4CCC(C3)N4)nc(OCC34CCCN3CCC4)nc12 [Compound 331] | 10000 to 30000 | 10000 to 30000 | > 1000 | 
CN(c1nc(OC[C@@]23CCCN2C[C@H](F)C3)nc2c(F)c(-c3ccc(F)c4sc(N)c(C#N)c34)c(C(F)(F)F)cc12)[C@@H]1CCN[C@@H]1CF [Compound 364] | ≤ 100 | 100 to 1000 | ≤ 100 | 
CN(c1nc(OC[C@@]23CCCN2C[C@H](F)C3)nc2c(F)c(-c3ccc(F)c4sc(N)nc34)c(C(F)(F)F)cc12)[C@H]1CNCC1(C)C [Compound 325] | 1000 to 10000 | 1000 to 10000 | > 1000 | 
C[C@@H]1C[C@@H](N(C)c2nc(OC[C@@]34CCCN3C[C@H](F)C4)nc3c(F)c(-c4ccc(F)c5sc(N)nc45)c(C(F)(F)F)cc23)CN1 [Compound 283] | 100 to 1000 | 100 to 1000 | 100 to 1000 | 
Nc1nc2c(-c3c(C(F)(F)F)cc4c(N5CC6CCC(C5)N6)nc(OCC5(CN6CC[C@@H](F)C6)CC5)nc4c3F)ccc(F)c2s1 [Compound 252] | 100 to 1000 | 100 to 1000 | ≤ 100 | 
N#Cc1c(N)sc2c(F)ccc(-c3ccc4c(N5CC6CCC(C5)N6)nc(OC[C@@]56CCCN5C[C@H](F)C6)nc4c3F)c12 [Compound 358] | 100 to 1000 | 1000 to 10000 | ≤ 100 | 
Nc1nc2c(-c3c(C(F)(F)F)cc4c(N5CCC[C@H]6NCC[C@H]65)nc(OCC56CCCN5CCC6)nc4c3F)ccc(F)c2s1 [Compound 332] | 100 to 1000 | 1000 to 10000 | 100 to 1000 | 
NCC(=O)N1CC(Nc2nc(OCC34CCCN3CCC4)nc3c(F)c(-c4ccc(F)c5sc(N)nc45)c(C(F)(F)F)cc23)C1 [Compound 187] | 100 to 1000 | 1000 to 10000 | > 1000 | 
